# Patent publication US12097252B2, “Formulation of a peptide vaccine” (priority 2016, dated 2024)
# Marks after values point to notes of the source that are not given here.
# Key:
# [1] = system: RAHYNIVTF-specific CD8^+ T cells; test: Strength of T cell response in blood, D^b-[…] tetramer flow cytometry; type: in vivo, C57BL/6 mice; details: for % Tm+ of CD8: emulsified 1:1 with Montanide ISA VG51, s.c.; for % CD62L+ KLRG1+ (% of TM+ CD8 T cells) / % CD62L− KLRG1+ (% of TM+ CD8 T cells): Montanide 1:1
# Procedure: On day 9 after vaccination, blood was drawn from the tail vein of all mice. Blood samples were transferred to a 96-wells culture plate and centrifuged for 5 minutes at 1600 rpm. Erythrocytes were lysed by suspending blood cell pellets in Lysis buffer until orange coloration was observed. Subsequently, cells were washed in FACS buffer and stained with the fluorescent antibodies, the D^b-[…]-APC tetramer and 7-AAD mentioned in the Materials section above. After 30 minutes of incubation on ice, cells were washed and analyzed on a BD LSRII flow cytometer in the Leiden University Medical Center (Dept. of Rheumatology).
# A study by Van Duikeren et al. (J Immunol, 2012; 189(7): 3397-403) aimed to identify parameters that correlated with the induction of an effective antitumor response. By identifying such biomarkers, different vaccine compositions can be tested in non-tumor bearing mice with prognostic value in tumor models. The authors found a correlation between the expression of KLRG1 and absence of CD62L expression on the one hand and effective antitumor immune responses on the other hand. We determined the percentages of KLRG1- and CD62L-expressing D^b-[…]^+ CD8^+ T cells in the blood of vaccinated mice on day 9 after vaccination using flow cytometry. No difference in percentage of […]-specific KLRG1^+ CD62L^− CD8^+ T cells is observed between groups 3 and 4. Not enough […]-specific CD8+ T cells were detected to reliably study the expression of KLRG1 and CD62L in the groups of mice vaccinated with vehicle only (Group 1 and 2). See Table 10 for the average percentages and standard deviations per group.
# [2] = system: TC-1 tumor cells, expressing the oncogenic E6 and E7 proteins of HPV16; test: Therapeutic vaccination of mice carrying TC-1 tumors; type: in vivo, C57BL/6 mice
# Procedure: The following groups of mice were included in the study: • Group 1: (n=5) 40% v/v DMSO/WFI emulsified 1:1 with Montanide ISA VG51. • Group 2: (n=5) Reconstitution composition (750 μL 0.1M Citric acid in water, 62.5 μL Propylene Glycol, 125 μL Ethanol and 62.5 μL Cremophor EL per mL) emulsified 1:1 with Montanide ISA VG51. • Group 3: (n=10) SLP […] and 20 μg CpG ODN1826/mouse dissolved in 40% v/v DMSO/WFI, emulsified 1:1 with Montanide ISA VG51. • Group 4: (n=10) SLP […] (SEQ ID NO: 6) and 20 μg CpG ODN1826/mouse dissolved in Reconstitution composition (750 μL 0.1M Citric acid in water, 62.5 μL Propylene Glycol, 125 μL Ethanol and 62.5 μL Cremophor EL per mL), emulsified 1:1 with Montanide ISA VG51.
# For mice in Group 1, a solution was prepared by admixing and subsequently swirling 400 μL DMSO and 600 μL WFI. The solution was taken up in a 2 mL Luer-Lock syringe (Syringe A). In another 2 mL Luer-Lock syringe (Syringe B) 1 mL of Montanide ISA VG51 was taken up, after which both syringes were connected to a T-connector. An emulsion was generated by mixing the contents back and forth extensively. After mixing, the syringes were disconnected and a 25 G needle was placed on the syringe containing the emulsion. Per mouse, 100 μL was injected in the left flank subcutaneously.
# The vaccine prepared for Group 2 was prepared in an identical manner, only differing by the use of reconstitution composition (750 μL 0.1M citric acid in water and 250 μL PG/EtOH/Cremophor EL 1:2:1, i.e. 0.075M citric acid, 6.25% v/v propylene glycol CAS no. 57-55-6, 12.5% v/v ethanol and 6.25% v/v polyoxyethyleneglyceroltriricinoleate 35 CAS no. 61791-12-6 in water) instead of DMSO and WFI. […]
# TC-1 tumor cells, expressing the oncogenic E6 and E7 proteins of HPV16 were cultured in complete IMDM culture medium, supplemented with 400 μg/ml geneticin. […] The tumor size of all mice was monitored at least twice a week using a caliper up to 75 days after tumor challenge.
# [3] = Group 3 average: SLP SEQ ID NO: 6 + CpG ODN1826 in 40% v/v DMSO/WFI, blood day 9 after vaccination
# [4] = Group 4 average: SLP SEQ ID NO: 6 + CpG ODN1826 in Reconstitution composition, blood day 9 after vaccination
sequence,measurement,setting,value
GQAEPDRAHYNIVTFCCKCDSTLRLCVQSTHVDIR [SLP 6],% Tm+ of CD8,"[1]; Group 3 average: SLP SEQ ID NO: 6 + 20 μg CpG ODN1826/mouse in 40% v/v DMSO/WFI, blood day 9 after vaccination",1.4%
same,% CD62L+ KLRG1+ (% of TM+ CD8 T cells),[1]; [3],4.0%
same,% CD62L− KLRG1+ (% of TM+ CD8 T cells),[1]; [3],51.9%
same,% Tm+ of CD8,"[1]; Group 4 average: SLP SEQ ID NO: 6 + 20 μg CpG ODN1826/mouse in Reconstitution composition (0.1M citric acid/PG/EtOH/Cremophor EL), blood day 9, p < 0.05 vs group 3",4.8* %
same,% CD62L+ KLRG1+ (% of TM+ CD8 T cells),[1]; [4],4.0%
same,% CD62L− KLRG1+ (% of TM+ CD8 T cells),[1]; [4],52.2%
same,percentage of induced D^b-RAYNIVTF (tetramer) positive CD8^+ T cells,"[1]; group 4 (Rec. composition+SLP) vs group 3 (DMSO+SLP), p=0.022",enhanced tetramer-positive CD8^+ T cell response
same,outgrowth of TC-1 tumors,"[2]; SLP 6 and CpG1826 in DMSO/WFI or Reconstitution composition, Montanide emulsion, s.c. day 8, monitored up to 75 days",Tumor regression is observed in all mice
same,"overall tumor outgrowth, comparison of formulations",[2]; SLP 6 dissolved in DMSO/WFI vs Reconstitution composition,No differences were observed in overall tumor outgrowth
same,Kaplan-Meier survival,[2]; SLP-vaccinated groups: DMSO/WFI vs Reconstitution composition,no differences between the vaccinated groups
